# Results from patent publication US11021481B2, “Substituted isoindolin-1-ones and 2,3-dihydro-1h-pyrrolo[3,4-c]pyridin-1-ones as HPK1 antagonists” (Nimbus Saturn, Inc., priority 2019, dated 2021).
# Structures can show the parent of a compound that is named as a salt.
# Target: HPK1 (Homo sapiens (Human), UniProt Q92918)
# Assay: HPK1 biochemical enzyme assay (microfluidic mobility shift assay)
# Conditions: 1.5 nM HPK1, ATP 1 mM final, 30 min preincubation, 60 min at RT, Caliper EZ Reader; read-out: HPK1 1000UMATP caliper IC50
# Summary of the method: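 Ten-point compound titrations (top 3 μM final) preincubated 30 min with HPK1 and substrate, then reaction started with 1 mM ATP and 1 μM substrate, 5 mM MgCl2. After 60 min at RT, reaction terminated and product measured by microfluidic mobility shift.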
# Chain of HPK1 (Q92918 whole entry): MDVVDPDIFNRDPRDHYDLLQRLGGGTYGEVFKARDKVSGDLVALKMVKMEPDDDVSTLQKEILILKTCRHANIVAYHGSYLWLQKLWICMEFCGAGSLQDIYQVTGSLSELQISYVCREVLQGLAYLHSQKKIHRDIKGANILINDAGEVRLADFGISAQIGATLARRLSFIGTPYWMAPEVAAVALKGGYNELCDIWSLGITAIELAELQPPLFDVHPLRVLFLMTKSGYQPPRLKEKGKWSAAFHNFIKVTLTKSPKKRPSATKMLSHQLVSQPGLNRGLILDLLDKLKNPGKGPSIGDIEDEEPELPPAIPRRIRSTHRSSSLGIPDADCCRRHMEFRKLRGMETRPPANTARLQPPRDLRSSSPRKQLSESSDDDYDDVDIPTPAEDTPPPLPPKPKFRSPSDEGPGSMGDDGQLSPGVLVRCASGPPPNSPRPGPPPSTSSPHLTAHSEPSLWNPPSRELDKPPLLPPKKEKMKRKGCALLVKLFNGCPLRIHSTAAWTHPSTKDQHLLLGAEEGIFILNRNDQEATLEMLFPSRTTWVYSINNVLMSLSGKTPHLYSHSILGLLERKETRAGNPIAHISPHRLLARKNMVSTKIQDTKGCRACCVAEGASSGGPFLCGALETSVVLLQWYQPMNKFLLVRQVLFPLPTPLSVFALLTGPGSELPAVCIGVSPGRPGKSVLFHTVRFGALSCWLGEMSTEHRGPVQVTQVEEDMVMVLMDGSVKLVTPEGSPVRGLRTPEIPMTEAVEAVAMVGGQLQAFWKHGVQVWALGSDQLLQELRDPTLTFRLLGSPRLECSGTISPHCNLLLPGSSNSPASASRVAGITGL
row,IC50 [nM],Structure (SMILES)
1,< 100,"O=C1NCc2c(-c3cnc4cc(F)ccn34)ccc(Nc3ccc([C@@H]4CCOC4)c(CN4CCC[C@@H]4CO)n3)c21 [I-826, 4-(7-fluoroimidazo [1,2-a]pyridin-3-yl)-7-((6-(((R)-2-(hydroxymeth-yl)pyrrolidin-1-yl)methyl)-5-((S)-THF-3-yl)pyridin-2-yl)amino)isoin-dolin-1-one]"
2,< 100,"O=C1NCc2c(-c3cnc4cc(F)ccn34)ccc(Nc3ccc([C@H]4CCOC4)c(CN4CCC[C@H]4CO)n3)c21 [I-827, 4-(7-fluoroimidazo [1,2-a]pyridin-3-yl)-7-((6-(((S)-2-(hydroxymeth-yl)pyrrolidin-1-yl]methyl)-5-((R)-THF-3-yl)pyridin-2-yl)amino)isoin-dolin-1-one]"
3,< 100,"O=C1NCc2c(-c3cnc4cc(F)ccn34)ccc(Nc3ccc([C@@H]4CCOC4)c(CN4CCC[C@H]4CO)n3)c21 [I-828, 4-(7-fluoroimidazo [1,2-a]pyridin-3-yl)-7-((6-(((S)-2-(hydroxymeth-yl)pyrrolidin-1-yl)methyl)-5-((S)-THF-3-yl)pyridin-2-yl)amino)isoin-dolin-1-one]"
4,100 to 1000,"CN(C)C(C)(C)c1nc(Nc2ccc(-c3cnc4cc(F)ccn34)c3c2C(=O)NC3)ccc1[C@H]1CCOC1 [I-832, (R)-7-((6-(2-(dimethylami-no)propan-2-yl)-5-(THF-3-yl)pyridin-2-yl)amino)-4-(7-fluoroimidazo [1,2-a]pyridin-3-yl)isoindolin-1-one]"
5,100 to 1000,"CN(C)C(C)(C)c1nc(Nc2ccc(-c3cnc4cc(F)ccn34)c3c2C(=O)NC3)ccc1[C@@H]1CCOC1 [I-833, (S)-7-((6-(2-(dimethylami-no)propan-2-yl)-5-(THF-3-yl)pyridin-2-yl)amino)-4-(7-fluoroimidazo [1,2-a]pyridin-3-yl)isoindolin-1-one]"
6,< 100,"CN(C)Cc1nc(Nc2ccc(-c3cnc4cc(F)ccn34)c3c2C(=O)NC3)ccc1C1(F)CCOCC1 [I-834, 7-((6-((dimethylamino)-methyl)-5-(4-fluorotetrahy-dro-2H-pyran-4-yl)pyridin-2-yl)amino)-4-(7-fluoroimidazo [1,2-a]pyridin-3-yl)isoindolin-1-one]"
7,< 100,"CN(C)CCc1nc(Nc2ccc(-c3cnc4cc(F)ccn34)c3c2C(=O)NC3)ccc1C1CCOCC1 [I-838, 7-((6-(2-(dimethylami-no)ethyl)-5-(tetrahydro-2H-pyran-4-yl)pyridin-2-yl)amino)-4-(7-fluoroimidazo [1,2-a]pyridin-3-yl)isoindolin-1-one]"
8,100 to 1000,"CN(C)[C@H]1CCCc2ccc(Nc3ccc(-c4cnc5cc(F)ccn45)c4c3C(=O)NC4)nc21 [I-841, (S)-7-((8-(dimethylam-ino)-5,6.7,8-tetrahydroquin-olin-2-yl)amino)-4-(7-fluoroimidazo [1,2-a]pyridin-3-yl)isoindolin-1-one]"
9,< 100,"CN(C)[C@@H]1CCCc2ccc(Nc3ccc(-c4cnc5cc(F)ccn45)c4c3C(=O)NC4)nc21 [I-842, (R)-7-((8-(dimethylam-ino)-5,6,7,8-tetrahydroquin-olin-2-yl)amino)-4-(7-fluoroimidazo [1,2-a]pyridin-3-yl)isoindo1in-1-one]"
10,< 100,"CN(C)Cc1nc(Nc2ccc(-c3cnc4cc(F)ccn34)c3c2C(=O)NC3)ccc1C1(C)CCOC1 (stereo not drawn) [I-843, 7-((6-((dimethylamino)-methyl)-5-(3-methylTHF-3-yl)pyridin-2-yl)amino)-4-(7-fluoroimidazo [1,2-a]pyridin-3-yl)isoindolin-1-one]"
11,< 100,"CC(C)NCc1nc(Nc2ccc(-c3cnc4cc(F)ccn34)c3c2C(=O)NC3)ccc1C1CCOCC1 [I-847, 4-(7-fluoroimidazo [1,2-a]pyridin-3-yl)-7-[[6-[(isopropylamino)-methyl]-5-tetrahydropyran-4-yl-2-pyridyl]amino] isoindolin-1-one Formic acid salt]"
12,< 100,"CC(C)(C)NCc1nc(Nc2ccc(-c3cnc4cc(F)ccn34)c3c2C(=O)NC3)ccc1C1CCOC1 (stereo not drawn) [I-848, 7-[[6-[(tert-butylamino)methyl]-5-tetrahydrofuran-3-yl-2-pyridyl]amino]-4-(7-fluoroimidazo [1,2-a]pyridin-3-yl)isoindolin-1-one]"

# The remaining lines, values behind:
row,Structure (SMILES),IC50 [nM]
1,"Cn1ccc2c(-c3ncc(Nc4ccc([C@H]5CCOC5)c(CN)n4)c4c3CNC4=O)ccnc21 [I-829, (R)-7-((6-(aminomethyl)-5-(THF-3-yl)pyridin-2-yl)amino)-4-(1-methyl-1H-pyrrolo[2,3-b]pyridin-4-yl)-2,3-dihydro-1H-pyrrolo[3,4-c]pyridin-1-one]",< 100
2,"COC1(c2ccc(Nc3ccc(-c4cnc5cc(F)ccn45)c4c3C(=O)NC4)nc2CN(C)C)CCOCC1 [I-830, 7-((6-((dimethylamino)-methyl)-5-(4-methoxytetra-hydro-2H-pyran-4-yl)pyridin-2-yl)amino)-4-(7-fluoroimidazo [1,2-a]pyridin-3-yl)isoindolin-1-one]",< 100
3,COCC1(c2ccc(Nc3ccc(-c4cnc5cc(F)ccn45)c4c3C(=O)NC4)nc2CN(C)C)CCOCC1 [I-831],< 100
4,"Cn1ccc2c(-c3ncc(Nc4ccc([C@@H]5CCOC5)c(CN)n4)c4c3CNC4=O)ccnc21 [I-836, (S)-7-((6-(aminomethyl)-5-(THF-3-yl)pyridin-2-yl)amino)-4-(1-methyl-1H-pyrrolo[2,3-b]pyridin-4-yl)-2,3-dihydro-1H-pyrrolo[3,4-c]pyridin-1-one]",< 100
5,"COCC1(c2ccc(Nc3ccc(-c4cnc5cc(F)ccn45)c4c3C(=O)NC4)nc2CN(C)C)CCOC1 (stereo not drawn) [I-837, 7-((6-((dimethylamino)methyl)-5-(3-(methoxymethyl)tetrahydrofuran-3-yl)pyridin-2-yl)amino)-4-(7-fluoroimidazo[1,2-a]pyridin-3-yl)isoindolin-1-one]",< 100
6,"CN(C)Cc1nc(Nc2cnc(-c3ccnc4c3ccn4C)c3c2C(=O)NC3)ccc1N1CCOC2(CC2)C1 [I-839, 7-((6-((dimethylamino)-methyl)-5-(4-oxa-7-azaspiro[2.5]octan-7-yl)pyridin-2-yl)amino)-4-(1-methyl-1H-pyrrolo[2,3-b]pyridin-4-yl)-2,3-dihydro-1H-pyrrolo[3,4-c]pyridin-1-one]",< 100
7,"CN(C)CCc1nc(Nc2ccc(-c3cnc4cc(F)ccn34)c3c2C(=O)NC3)ccc1N1CCOCC1 [I-840, 7-((6-(2-(dimethylami-no)ethyl)-5-morpholinopyridin-2-yl)amino)-4-(7-fluoroimidazo [1,2-a]pyridin-3-yl)isoindolin-1-one]",< 100
8,"CC(C)NCc1nc(Nc2cnc(-c3ccnc4c3ccn4C)c3c2C(=O)NC3)ccc1C1CCOCC1 [I-844, 7-[[6-[(isopropylamino)-methyl]-5-tetrahydropy-ran-4-yl-2-pyridyl]amino]-4-(1-methylpyrrolo [2,3-b]pyridin-4-yl)-2,3-dihydropyrrolo [3,4-c]pyridin-1-one Formic acid salt]",< 100
9,"CN(C)Cc1nc(Nc2cnc(-c3ccnc4c3ccn4C)c3c2C(=O)NC3)ccc1C1CCOCC1 [I-845, 7-[[6-[(dimethylamino)-methyl]-5-tetrahydropyran-4-yl-2-pyridyl]amino]-4-[l-methylpyrrolo [2,3-b]pyridin-4-yl)-2,3-dihydropyrrolo [3,4-c]pyridin-1-one Formic acid salt]",< 100
